Source: patent publication US20170175161A1, “RAPID DETERMINATION OF BACTERIAL SUSCEPTIBILITY TO AN […] THE POINT OF CARE” (Point of Care Diagnostics, LLC, priority 2014, published 2017)

System: bacterial infection within the sample (sample 101, e.g. urine)
Assay: assay 200: antibiotic susceptibility of a bacterial infection by ATP bioluminescence
Type: cell-based
Protocol: To perform assay 200 to determine antibiotic susceptibility of a bacterial infection within the sample, a second test sample 204 and third test sample 205 may be obtained from sample 101 by applying 50 to 400 μL of first reagent 202 and 50 to 300 μL of culture medium 203 to 1 to 20 μL of sample 101 to create second test sample 204 and to 1 to 20 μL of sample 101 to create third test sample 205. First reagent 202 may include 10 to 100 mM of Tris Acetate as a buffer, 0.0001 to 0.1% of Benzethonium Chloride, and 0.5 to 4 Units/ml of Apyrase. First reagent 202 may cause non-bacterial ATP to be released and removed, in a manner similar to that as described herein. Culture medium 203 may include 50 to 300 μL of Tryptic Soy Broth. Culture medium 203 may be applied to second test sample 204 and third test sample 205 and may promote the growth and robustness of the bacterial population, in a manner similar to that described herein.
First antibiotic 206 may be applied to third test sample 205. In this example, first antibiotic 206 may include 10 to 100 μg of Amoxicillin. Second test sample 204 and the third test sample 205 may then be incubated for ˜40 minutes at 37 degrees Celsius.
After incubation, second reagent 207 (e.g., 100 to 500 μL) may be applied to second test sample 204 and third test sample 205. Second reagent 207 may include 10 to 100 mM of Tris Acetate as a buffer and 2 to 30 mg/L of Luciferase, 2 to 30 mg/L of Luciferin, and 0.1 to 0.5% of Chlorhexidine di-gluconate. […]
A Berthold Junior Luminometer may be used to measure a first bioluminescent signal (and associated strength) from third test sample 205 and a second bioluminescent signal (and associated strength) from second test sample 204 (e.g., based on released ATP, etc.). In a manner similar to that described above, the strength associated with the first bioluminescent signal and/or the strength associated with the second bioluminescent signal may be proportional to the respective quantity and/or concentration of ATP and/or quantity of bacterial cells within third test sample 205 and/or second test sample 204, respectively. […] In this example, the strength of the first bioluminescent signal was measured to be 66,823 RLU's and the strength of the second bioluminescent signal was measured to be 62,535 RLU's. Thus, the quantity of bacteria cells in third test sample 205 was ˜62,000 cfu/ml and the quantity of bacteria cells in the second test sample 204 was ˜67,000 cfu/ml.
In the event that the bacteria, within third test sample 205, are susceptible to first antibiotic 206, the quantity of bacterial cells in third test sample 205 may be less than the quantity of bacterial cells in second test sample 204. […]

`CC1(C)S[C@@H]2[C@H](NC(=O)[C@H](N)c3ccc(O)cc3)C(=O)N2[C@H]1C(=O)O` [Amoxicillin] was tested, and the “susceptibility of the bacteria to the antibiotic” value (10-100 μg, ΔL compared to second threshold >30% difference) was “may not be susceptible”, the “strength of the first bioluminescent signal (third test sample 205, with antibiotic)” value (10 to 100 μg antibiotic, incubated ~40 minutes at 37 degrees Celsius, Berthold Junior Luminometer, baseline second test sample 62,535 RLU's) was 66,823 RLU's and the “quantity of bacteria cells in third test sample 205” value (10 to 100 μg antibiotic, ~40 minutes at 37 degrees Celsius, baseline second test sample ~67,000 cfu/ml) was ~62,000 cfu/ml. For the same compound, the “ΔL, difference between first and second bioluminescent signal strength” value (antibiotic-treated vs baseline sample, second threshold >30% difference) was 7.5%.
